The values that follow are results of earlier work, collected in US6103723A, “Inhibitors of farnesyl-protein transferase” (Merck & Co., Inc., priority 1998, dated 2000).

This data set deals with farnesyl-protein transferase. The settings on record: via HMG-CoA reductase inhibition.

For `CC[C@H](C)C(=O)O[C@H]1CCC=C2C=C[C@H](C)[C@H](CC[C@@H]3C[C@@H](O)CC(=O)O3)[C@H]21` [compactin], the “Indirect inhibition of farnesyl-protein transferase in vivo” value is listed as “Indirect inhibition of farnesyl-protein transferase in vivo has been demonstrated”. Take `CC[C@H](C)C(=O)O[C@H]1C[C@@H](C)C=C2C=C[C@H](C)[C@H](CC[C@@H]3C[C@@H](O)CC(=O)O3)[C@H]21` [lovastatin]: the “Indirect inhibition of farnesyl-protein transferase in vivo” value is on record as “Indirect inhibition of farnesyl-protein transferase in vivo has been demonstrated”.
